Experimental data from patent publication US10077261B2, “Imidazolin-5-one derivative useful as FASN inhibitors for the treatment of cancer” (Janssen Pharmaceutica NV, priority 2012, dated 2018).

Target: T1, hFASN enzyme (full length) (Homo sapiens, UniProt P49327)
T1 construct: 10 μL hFASN enzyme (full length, 300 ng, purified in house); made in house
Assay: Fatty Acid Synthase (FASN) inhibition scintillation proximity assay
Type: biochemical
Settings: for inhibition at 10 µM: read-out: Human FASN % inhibition @ 10 μM, 10 μM test compound; for IC50: read-out: Human FASN pIC50 (converted)
Method in brief: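 Proximity read-out: hydrophobic ^3H-palmitate formed from ^3H-acetyl-CoA and malonyl-CoA binds streptavidin imaging beads, imaged at 610±20 nm at least 24 h after stopping. Enzyme was in-house purified full-length hFASN, 300 ng, in pH 7.5 phosphate/DTT buffer; compound series 30 μM down to 0.01 μM, normalized to controls, 4-parameter fit.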

T1 sequence (P49327 whole entry): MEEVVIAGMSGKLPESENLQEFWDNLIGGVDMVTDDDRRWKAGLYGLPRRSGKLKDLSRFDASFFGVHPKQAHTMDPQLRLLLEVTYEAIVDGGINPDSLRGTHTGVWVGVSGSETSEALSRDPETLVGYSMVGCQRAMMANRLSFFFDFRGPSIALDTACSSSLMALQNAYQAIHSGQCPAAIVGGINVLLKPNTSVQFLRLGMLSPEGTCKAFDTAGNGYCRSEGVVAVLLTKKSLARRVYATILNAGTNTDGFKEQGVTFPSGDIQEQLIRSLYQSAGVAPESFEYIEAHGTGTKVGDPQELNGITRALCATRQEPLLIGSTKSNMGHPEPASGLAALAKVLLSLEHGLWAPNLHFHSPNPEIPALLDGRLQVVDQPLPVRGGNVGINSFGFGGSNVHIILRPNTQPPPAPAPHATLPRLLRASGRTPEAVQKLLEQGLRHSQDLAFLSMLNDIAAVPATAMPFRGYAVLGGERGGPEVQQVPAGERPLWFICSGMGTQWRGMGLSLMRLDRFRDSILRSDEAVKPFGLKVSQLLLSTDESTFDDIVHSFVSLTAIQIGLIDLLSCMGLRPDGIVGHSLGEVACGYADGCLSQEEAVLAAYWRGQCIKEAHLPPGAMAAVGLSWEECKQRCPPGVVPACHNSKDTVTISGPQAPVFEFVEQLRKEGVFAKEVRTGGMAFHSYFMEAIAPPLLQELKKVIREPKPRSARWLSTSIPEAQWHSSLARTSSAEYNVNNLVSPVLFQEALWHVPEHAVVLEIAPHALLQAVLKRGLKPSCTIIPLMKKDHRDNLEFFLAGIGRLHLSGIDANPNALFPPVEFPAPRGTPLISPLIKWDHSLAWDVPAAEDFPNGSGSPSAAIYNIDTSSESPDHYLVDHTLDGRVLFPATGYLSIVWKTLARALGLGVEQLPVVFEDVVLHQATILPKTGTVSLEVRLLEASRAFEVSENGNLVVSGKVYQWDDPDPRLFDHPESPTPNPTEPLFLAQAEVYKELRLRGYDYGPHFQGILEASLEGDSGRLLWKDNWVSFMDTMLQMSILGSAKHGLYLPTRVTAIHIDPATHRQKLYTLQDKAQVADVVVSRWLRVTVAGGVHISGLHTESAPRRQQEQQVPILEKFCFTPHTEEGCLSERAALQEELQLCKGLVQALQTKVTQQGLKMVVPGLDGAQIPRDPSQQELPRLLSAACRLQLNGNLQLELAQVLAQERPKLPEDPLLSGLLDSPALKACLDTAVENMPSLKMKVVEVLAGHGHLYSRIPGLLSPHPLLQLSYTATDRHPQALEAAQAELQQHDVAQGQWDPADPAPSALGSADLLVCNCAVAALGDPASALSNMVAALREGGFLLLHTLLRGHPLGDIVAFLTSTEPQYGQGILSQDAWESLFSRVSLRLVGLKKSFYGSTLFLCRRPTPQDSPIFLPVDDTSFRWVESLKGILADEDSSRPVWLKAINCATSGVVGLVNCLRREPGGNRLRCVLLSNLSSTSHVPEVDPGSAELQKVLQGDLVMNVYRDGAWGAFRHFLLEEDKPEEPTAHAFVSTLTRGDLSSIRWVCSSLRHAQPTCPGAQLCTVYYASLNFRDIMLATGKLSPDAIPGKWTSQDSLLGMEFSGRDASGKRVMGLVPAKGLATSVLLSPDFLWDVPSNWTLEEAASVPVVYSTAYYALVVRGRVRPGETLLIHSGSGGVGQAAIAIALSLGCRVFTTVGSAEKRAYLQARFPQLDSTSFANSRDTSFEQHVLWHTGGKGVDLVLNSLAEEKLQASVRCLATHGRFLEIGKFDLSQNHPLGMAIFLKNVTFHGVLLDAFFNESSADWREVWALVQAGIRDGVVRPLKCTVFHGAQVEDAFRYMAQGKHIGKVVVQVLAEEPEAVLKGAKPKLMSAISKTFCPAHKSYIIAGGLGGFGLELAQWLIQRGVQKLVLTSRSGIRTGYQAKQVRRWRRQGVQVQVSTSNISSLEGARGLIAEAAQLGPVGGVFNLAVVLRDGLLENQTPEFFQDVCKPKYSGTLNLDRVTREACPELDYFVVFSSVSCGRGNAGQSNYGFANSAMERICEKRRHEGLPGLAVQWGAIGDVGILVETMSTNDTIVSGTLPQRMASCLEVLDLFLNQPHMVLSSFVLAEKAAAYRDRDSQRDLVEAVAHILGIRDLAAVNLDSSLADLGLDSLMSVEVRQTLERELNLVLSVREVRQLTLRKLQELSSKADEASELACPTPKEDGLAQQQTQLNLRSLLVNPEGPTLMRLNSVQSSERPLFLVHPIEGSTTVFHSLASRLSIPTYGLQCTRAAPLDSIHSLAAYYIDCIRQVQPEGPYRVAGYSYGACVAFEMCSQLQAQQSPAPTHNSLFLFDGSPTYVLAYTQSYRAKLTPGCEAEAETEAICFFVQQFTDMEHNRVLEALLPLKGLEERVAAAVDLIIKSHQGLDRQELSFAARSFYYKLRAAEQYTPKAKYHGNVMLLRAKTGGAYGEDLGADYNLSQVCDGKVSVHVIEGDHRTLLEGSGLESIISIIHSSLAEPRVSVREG

Row | SMILES | inhibition at 10 µM | IC50 | Human FASN pIC50 (hFASN enzyme, full length, "~" means standard error of the pIC50 is larger than 0.5)
1 | CC(C)n1ncc2cc(-c3ccc(C4=NC5(CC5)C(=O)N4C[C@@H]4CCN(C(=O)C5CC5)C4)cc3)ccc21 [compound 454, 6-{[(3R)-1-(Cyclopropylcarbonyl)pyrrolidin-3-yl]methyl}-5-{4-[1-(1-methylethyl)-1H-indazol-5-yl]phenyl}-4,6-diazaspiro[2.4]hept-4-en-7-one] | 53% | ~6030 nM | 
2 | O=C(C1CC1)N1CC[C@@H](CN2C(=O)C3(CC3)N=C2c2ccc(-c3ccc4c(c3)OCCO4)cc2)C1 [compound 456, 6-{[(3R)-1-(Cycloprop-ylcarbonyl)pyrrolidin-3-yl]methyl}-5-[4-(2,3-dihydro-1,4-benzodioxin-6-yl)phenyl]-4,6-diazaspiro[2.4]hept-4-en-7-one] | 65% | 6920 nM | 
3 | O=C(C1CC1)N1CC[C@@H](CN2C(=O)C3(CC3)N=C2c2cnc(-c3ccc4occc4c3)nc2)C1 [compound 458, 5-[2-(1-Benzofuran-5-yl)pyrimidin-5-yl]-6-{[(3R)-1-(cyclopropylcarbonyl)pyrrolidin-3-yl]methyl}0-4,6-diazaspiro[2.4]hept-4-en-7-one] | 48% | 8130 nM | 
4 | Cn1ncc2cc(-c3ncc(C4=NC5(CC5)C(=O)N4C[C@@H]4CCN(C(=O)C5CC5)C4)cn3)ccc21 [compound 459, 6-{[(3R)-1-(Cyclopropylcarbonyl)pyrrolidin-3-yl]methyl}-5-[2-(1-methyl-1H-indazol-5-yl)pyrimidin-5-yl]-4,6-diazaspiro[2.4]hept-4-en-7-one] | 43% |  | 5.06
5 | Cc1cc(C2=NC3(CC3)C(=O)N2CC2CN(C(=O)C3CC3)C2)ccc1-c1ccc2oc(C#N)cc2c1 [compound 460, 5-[4-(6-{[1-(Cyclopropylcarbonyl)azetidin-3-yl]methyl}-7-oxo-4,6-diazaspiro[2.4]hept-4-en-5-yl)-2-methylphenyl]-1-benzofuran-2-carbonitrile] | 63% | 3090 nM | 
6 | O=C(C1CC1)N1CC[C@@H](CN2C(=O)C3(CC3)N=C2c2ccc(-c3ccc4c(c3)CCCO4)cc2)C1 [compound 464, 6-{[(3R)-1-(Cyclopropylcarbonyl)pyrrolidin-3-yl]methyl}-5-[4-(3,4-dihydro-2H-chromen-6-yl)phenyl]-4,6-diazaspiro[2.4]hept-4-en-7-one] | 66% | 4070 nM | 
7 | N#Cc1cc2cc(-c3ccc(C4=NC5(CC5)C(=O)N4CC4CN(C(=O)C5CC5)C4)cc3F)ccc2o1 [compound 477, 5-[4-(6-{[1-(Cyclopropylcarbonyl)azetidin-3-yl]methyl}-7-oxo-4,6-diazaspiro[2.4]hept-4-en-5-yl)-2-fluorophenyl]-1-benzofu8ran-2-carbonitrile] | 67% | 3090 nM | 
8 | O=C(C1CC1)N1CC[C@@H](CN2C(=O)C3(CC3)N=C2c2ccc(-c3cc4cc(Br)ccc4cn3)cc2)C1 [compound 478, 5-[4-(6-Bromoisoquinolin-3-yl)phenyl]-6-{[(3R)-1-(cyclopropylcarbonyl)pyrrolidin-3-yl]methyl}-4,6-diazaspiro[2.4]hept-4-en-7-one] | 92% | 1380 nM | 
9 | O=C(C1CC1)N1CC(CN2C(=O)C3(CC3)N=C2c2ccc(-c3ccc4nccnc4c3)cc2)C1 [compound 481, 6-{[1-(Cyclopropylcarbonyl)azetidin-3-yl]methyl}-5-(4-quinoxalin-6-ylphenyl)-4,6-diazaspiro[2.4]hept-4-en-7-one] | 68% | 2190 nM | 
10 | O=C(C1CC1)N1CC(CN2C(=O)C3(CC3)N=C2c2ccc(-c3ccc(N4CCCC4)nc3)cc2)C1 [compound 482, 6-{[1-(Cyclopropylcarbonyl)azetidin-3-yl]methyl}-5-[4-(6-pyrrolidin-1-ylpyridin-3-yl)phenyl]-4,6-diazaspiro[2.4]hept-4-en-7-one] | 76% | 1320 nM | 
11 | Cn1nc2ccc(-c3ccc(C4=NC5(CC5)C(=O)N4C[C@@H]4CCN(C(=O)C5CC5)C4)cc3)cc2c1CO [compound 487, 6-{[(3R)-1-(Cyclopropylcarbonyl)pyrrolidin-3-yl]methyl}-5-{4-[3-(hydroxymethyl)-2-methyl-2H-indazol-5-yl]phenyl}-4,6-diazaspiro[2.4]hept-4-en-7-one] | 81% | 1170 nM | 
12 | Cc1cc(-c2ccc(C3=NC4(CC4)C(=O)N3CC3CN(C(=O)C4CC4)C3)cc2)cc2cnn(C)c12 [compound 492, 6-{[1-(Cyclopropylcarbonyl)azetidin-3-yl]methyl}-5-[4-(1,7-dimethyl-1H-indazol-5-yl)phenyl]-4,6-dazaspiro[2.4]hept-4-en-7-one] | 77% | 1000 nM | 
13 | Cn1c(=O)c2cc(-c3ccc(C4=NC5(CC5)C(=O)N4C[C@@H]4CCN(C(=O)C5CC5)C4)cc3)ccc2n1C [compound 500, 5-[4-(6-{[(3R)-1-(Cyclopropylcarbonyl)pyrrolidin-3-yl]methyl}-7-oxo-4,6-diazaspiro[2.4]hept-4-rn-5-yl)phenyl]-1,2-dimethyl-1,2-dihydro-3H-indazol-3-one] | 74% | ~2750 nM | 
14 | O=C(C1CC1)N1CC(CN2C(=O)C3(CC3)N=C2c2ccc(-c3ccc4nn(CC5CC5)cc4c3)cc2)C1 [compound 501, 6-{[1-(Cyclopropylcarbonyl)azetidin-3-yl]methyl}-5-{4-[2-(cyclopropylmethyl)-2H-indazol-5-yl]phenyl}-4,6-diazaspiro[2.4]hept-4-en-7-one] | 52% | 8320 nM | 
15 | Cn1ncc2cc(-c3ccc(C4=NC5(CC5)C(=O)N4CC4CN(C(=O)C5CC5)C4)cc3)cnc21 [compound 503, 6-{[1-(Cyclopropylcarbonyl)azetidin-3-yl]methyl}-5-[4-(1-methyl-1H-pyrazolo[3,4-b]pyridin-5-yl)phenyl]-4,6-diazaspiro[2.4]hept-4-en-7-one] | 58% | 5750 nM | 
16 | O=C(C1CC1)N1CC(CN2C(=O)C3(CC3)N=C2c2ccc(-c3ccc4oncc4c3)cc2)C1 [compound 504, 5-[4-(1,2-Benzisoxazol-5-yl)phenyl]-6-{[1-(cyclopropylcarbonyl)azetidin-3-yl]methyl}-4,6-diazaspiro[2.4]hept-4-en-7-one] | 42% | 8510 nM | 
17 | CCn1ncc2cc(-c3ccc(C4=NC5(CC5)C(=O)N4CC4CN(C(=O)C5CC5)C4)cc3)ccc21 [compound 505, 6-{[1-(Cyclopropylcarbonyl)azetidin-3-yl]methyl}-5-[4-(1-ethyl-1H-indazol-5-yl)phenyl]-4,6-diazaspiro[2.4]hept-4-en-7-one] | 80% | 1170 nM | 
18 | CCn1cc2cc(-c3ccc(C4=NC5(CC5)C(=O)N4CC4CN(C(=O)C5CC5)C4)cc3)ccc2n1 [compound 506, 6-{[1-(Cyclopropylcarbonyl)azetidin-3-yl]methyl}-5-[4-(2-ethyl-2H-indazol-5-yl)phenyl]-4,6-diazaspiro[2.4]hept-4-en-7-one] | 61% | 3390 nM | 
19 | CC(C)n1ccc2cc(-c3ccc(C4=NC5(CC5)C(=O)N4CC4CN(C(=O)C5CC5)C4)cc3)ccc21 [compound 508, 6-{[1-(Cyclopropylcarbonyl)azetidin-3-yl]methyl}-5-{4-[1-(1-methylethyl)-1H-indol-5-yl]phenyl}-4,6-diazaspiro[2.4]hept-4-en-7-one] | 74% | 2880 nM | 
20 | O=C(C1CC1)N1CC(CN2C(=O)C3(CC3)N=C2c2ccc(-c3ccc(-n4ccnc4)nc3)cc2)C1 [compound 509, 6-{[1-(Cyclopropylcarbonyl)azetidin-3-yl]methyl}-5-{4-[6-(1H-imidazol-1-yl)pyridin-3-yl]phenyl}-4,6-diazaspiro[2.4]hept-4-en-7-one] | 69% | 2000 nM | 
21 | Cc1ccc2ccc(-c3ccc(C4=NC5(CC5)C(=O)N4CC4CN(C(=O)C5CC5)C4)cc3)cc2n1 [compound 513, 6-{[1-(Cyclopropylcarbonyl)azetidin-3-yl]methyl}-5-[4-(2-methylquinolin-7-yl)phenyl]-4,6-diazaspiro[2.4]hept-4-en-7-one] | 85% | 1230 nM | 
22 | Cn1nccc1-c1ccc(-c2ccc(C3=NC4(CC4)C(=O)N3CC3CN(C(=O)C4CC4)C3)cc2)cc1 [compound 514, 6-{[1-(Cyclopropylcarbonyl)azetidin-3-yl]methyl}-5-[4′-(1-methyl-1H-pyrazol-5-yl)biphenyl-4-yl]-4,6-diazaspiro[2.4]hept-4-en-7-one] | 56% | 7410 nM | 
23 | CC(C)n1cc(-c2ccc(-c3ccc(C4=NC5(CC5)C(=O)N4CC4CN(C(=O)C5CC5)C4)cc3)cn2)cn1 [compound 516, 6-{[1-(Cyclopropylcarbonyl)azetidin-3-yl]methyl}-5-(4-{6-[1-(1-methylethyl)-1H-pyrazol-4-yl]pyridin-3-yl}phenyl)-4,6-diazaspiro[2.4]hept-4-en-7-one] | 83% | 1170 nM | 
24 | CC(O)C(=O)N1CC[C@@H](CN2C(=O)C3(CCOCC3)N=C2c2ccc(-c3ccc(-c4cnn(C)c4)cc3)cc2)C1 (stereo partly drawn) [compound 656, 3-{[(3R)-1-(2-Hydroxypropanoyl)pyrrolidin-3-yl]methyl}-2-[4′-(1-methyl-1H-pyrazol-4-yl)biphenyl-4-yl]-8-oxa-1,3-diazaspiro[4.5]dec-1-en-4-one] | 74% | 2000 nM | 
25 | COC(=O)N1CC[C@@H](CN2C(=O)C3(CCOCC3)N=C2c2ccc(-c3ccc(-c4cnn(C)c4)cc3)cc2)C1 [compound 658, Methyl (3S)-3-({2-[4′-(1-methyl-1H-pyrazol-4-yl)biphenyl-4-yl]-4-oxo-8-oxa-1,3-diazaspiro[4.5]dec-1-en-3-yl}methyl)pyrrolidin-1-carboxlate] | 52% | 8710 nM | 
